Measured values taken from patent publication EP0237138A1, “Heterocyclic compounds, their preparation and, pharmaceutical compositions containing them” (YAMANOUCHI PHARMACEUTICAL CO. LTD., priority 1986, dated 1987).

Experiments:
[1] = target: T1, human placenta aldose reductase (Homo sapiens, UniProt P15121); assay: Aldose reductase-inhibitory activity (rate of disappearance of NADPH, glyceraldehyde substrate); type: biochemical; details: for inhibition at 1 µM: 10^-6(M); for inhibition at 0.1 µM: 10^-7(M)
T1 construct: a human placenta aldose reductase was purified to a single protein; from tissue; host or cells: human placenta
Description: The compound of the present invention, aldose reductase and nicotinamide adenine dinucleotide phosphate (NADPH) are dissolved in a buffer of pH 6.2 and incubated for 10 minutes at 25°C; glyceraldehyde is added thereto to start the reaction, and the rate of disappearance of NADPH is defined to be the enzyme activity of the aldose reductase.

[2] = tested on: Platelet aggregation in PRP; assay: Platelet aggregation-inhibitory activity (arachidonate-induced aggregation in platelet-rich plasma, Born's method); details: aggregation induced by arachidonate

Q: Which inhibition at 1 µM [1] does the source give for `O=C1NC(=S)SC1=C1C(=O)Nc2ccc(Br)cc21` [Example 67, 5-bromo-3-(4-oxo-2-thioxo-5-thiazolidinylidene)-2-indolinone] here?
A: 64%

Q: Which results are given for `O=C1NC(=S)SC1=C1C=CS(=O)(=O)c2ccccc21` [Example 119]?
A: inhibition at 1 µM [1]: 53%; inhibition at 0.1 µM [1]: 37%; Platelet Aggregation Inhibition ([2]; 400 (μM)): 84%

Q: For `O=C1NC(=S)SC1=C1C(=O)Nc2ccccc21` [Example 146, 3-(4-oxo-2-thioxo-3-thiazolidinylidene)-2-indolinone], which inhibition at 1 µM [1] is on record?
A: 56%

Q: For `O=C1NC(=O)[C@@]2(CCOc3ccc(F)cc32)N1` [Sorbinil, reference compound], which inhibition at 1 µM [1] is on record?
A: 53.6%

Q: And the inhibition at 0.1 µM [1]?
A: 15%

Q: For `O=C1NC(=S)SC1=C1CCSc2ccccc21` [Example 105, 4-oxo-5-(4-thiochromanylidene)-2-thioxo-thiazolidine], which inhibition at 1 µM [1] is on record?
A: 83%

Q: What about the inhibition at 0.1 µM [1] of the same compound?
A: 29%

Q: With `COc1cccc2c1CCCC2=C1SC(=S)N(CC(=O)O)C1=O` [Example 11, 5-(5-methoxy-1,2,3,4-tetrahydro-1-naphthylidene)-4-oxo-2-thioxo-3-thiazolidine-acetic acid] as the compound, how does the inhibition at 1 µM [1] read?
A: 89%

Q: And the inhibition at 0.1 µM [1]?
A: 40%

Q: Which results are given for `COc1ccc2c(c1)CCCC2=C1SC(=S)N(CC(=O)O)C1=O` [Example 7, 5-(6-methoxy-1,2,3,4-tetrahydro-1-natphylidene)-4-oxo-2-thioxo-3-thiazolidine-acetic acid]?
A: inhibition at 1 µM [1]: 93%; inhibition at 0.1 µM [1]: 65%; Platelet Aggregation Inhibition ([2]; 200 (μM)): 100%

Q: For `O=C1NC(=O)/C(=C2\CCS(=O)(=O)c3ccccc32)S1` [Example 99B, (Z)-4-(2,4-dioxo-5-thiazolidinylidene)thiochroman 1,1-dioxide], which inhibition at 1 µM [1] is on record?
A: 87%

Q: And the inhibition at 0.1 µM [1]?
A: 42%

Q: For `O=C1NC(=S)SC1=C1C(=O)Nc2ccc(Cl)cc21` [Example 66, 5-chloro-3-(4-oxo-2-thioxo-5-thiazolidinylidene)-2-indolinone], which inhibition at 1 µM [1] is on record?
A: 72%

Q: For `O=C1NC(=S)SC1=C1CCCS(=O)(=O)c2ccccc21` [Example 49, 2,3,4,5-tetrahydro-5-(4-oxo-2-thioxo-5-thiazolidinylidene)-1-benzothiepine 1,1-dioxide], which inhibition at 1 µM [1] is on record?
A: 65%

Q: What about the inhibition at 0.1 µM [1] of the same compound?
A: 23%

Q: `O=C(O)c1ccc(N2C(=O)C(=C3CCS(=O)(=O)c4ccccc43)SC2=S)cc1` [Example 54, 4-[3-(p-carboxyphenyl)-4-oxo-2-thioxo-5-thiazolidinylidene]thiochroman 1,1-dioxide] was tested. Which inhibition at 1 µM [1] did it give?
A: 30%

Q: And the inhibition at 0.1 µM [1]?
A: 15%

Q: And the “Platelet Aggregation Inhibition” value ([2]; 200 (μM))?
A: 65%

Q: Which results are given for `N=C1NC(=O)C(=C2CCS(=O)(=O)c3ccccc32)S1` [Example 95, 4-(2-imino-4-oxo-5-thiazolidinylidene)thiochroman 1,1-dioxide]?
A: inhibition at 1 µM [1]: 65%; inhibition at 0.1 µM [1]: 19%; Platelet Aggregation Inhibition ([2]; 400 (μM)): 43%
